From ChEMBL document CHEMBL3885881, “DrugMatrix”

Organism: Rattus norvegicus
Test: DrugMatrix - Regimen: Daily Repeat
Format: toxicity, organism-based, Sprague-Dawley
Parameters: regimen Daily Repeat, gender Male, age 6-8 weeks
Conditions: in vivo, po, 0 mg/kg, route oral GAVAGE, dose level Control, vehicle 100 % SALINE; for ABSOLUTE BASOPHIL / ABSOLUTE EOSINOPHIL / ABSOLUTE LYMPHOCYTE / ABSOLUTE MONOCYTE / ABSOLUTE SEGMENTED NEUTROPHIL / BASOPHIL / EOSINOPHIL / ERYTHROCYTE COUNT / HEMATOCRIT / HEMOGLOBIN / LEUKOCYTE COUNT / LYMPHOCYTE / MEAN CORPUSCULAR HEMOGLOBIN / MEAN CORPUSCULAR HEMOGLOBIN CONCENTRATION / MEAN CORPUSCULAR VOLUME / MONOCYTE / NEUTROPHIL / NUCLEATED RED BLOOD CELLS / PLATELET COUNT: tissue Blood; for ALANINE AMINOTRANSFERASE / ALBUMIN / ALKALINE PHOSPHATASE / ASPARTATE AMINOTRANSFERASE / BLOOD UREA NITROGEN / CARBON DIOXIDE / CHLORIDE / CHOLESTEROL / CREATINE PHOSPHOKINASE / CREATININE / GLUCOSE / LACTATE DEHYDROGENASE / LIPASE / PHOSPHORUS / POTASSIUM / SODIUM / TOTAL BILIRUBIN / TOTAL PROTEIN / URIC ACID: tissue Plasma

**Q.** What does the source list for `O=P1(NCCCl)OCCCN1CCCl` (stereo unspecified) [IFOSFAMIDE]?
**A.** ABSOLUTE BASOPHIL (72 h, time 3 day): 0 CELLS/uL; ABSOLUTE EOSINOPHIL (72 h, time 3 day): 0 CELLS/uL; ABSOLUTE LYMPHOCYTE (72 h, time 3 day): 8960.83 CELLS/uL; ABSOLUTE MONOCYTE (72 h, time 3 day): 103.5 CELLS/uL; ABSOLUTE SEGMENTED NEUTROPHIL (72 h, time 3 day): 635.67 CELLS/uL; BASOPHIL (72 h, time 3 day): 0%; EOSINOPHIL (72 h, time 3 day): 0%; ERYTHROCYTE COUNT (72 h, time 3 day): 5.09 x10E6/uL; HEMATOCRIT (72 h, time 3 day): 31.8%; HEMOGLOBIN (72 h, time 3 day): 12.42 G/DL; LEUKOCYTE COUNT (72 h, time 3 day): 9.7 x10E3/uL; LYMPHOCYTE (72 h, time 3 day): 92.33%; MEAN CORPUSCULAR HEMOGLOBIN (72 h, time 3 day): 24.4 pg; MEAN CORPUSCULAR HEMOGLOBIN CONCENTRATION (72 h, time 3 day): 39.07 G/DL; MEAN CORPUSCULAR VOLUME (72 h, time 3 day): 62.47 fL; MONOCYTE (72 h, time 3 day): 1%; NEUTROPHIL (72 h, time 3 day): 6.67%; NUCLEATED RED BLOOD CELLS (72 h, time 3 day): 0 /100WBC; PLATELET COUNT (72 h, time 3 day): 466.5 x10E3/uL; ALANINE AMINOTRANSFERASE (72 h, time 3 day): 83.33 u/L; ALBUMIN (72 h, time 3 day): 4.33 G/DL; ALKALINE PHOSPHATASE (72 h, time 3 day): 340.5 u/L; ASPARTATE AMINOTRANSFERASE (72 h, time 3 day): 189.83 u/L; BLOOD UREA NITROGEN (72 h, time 3 day): 15.83 mg/dL; CARBON DIOXIDE (72 h, time 3 day): 38 mmol/L; CHLORIDE (72 h, time 3 day): 96.83 MEQ/L; CHOLESTEROL (72 h, time 3 day): 72.5 mg/dL; CREATINE PHOSPHOKINASE (72 h, time 3 day): 370.67 u/L; CREATININE (72 h, time 3 day): 0.28 mg/dL; GLUCOSE (72 h, time 3 day): 182.83 mg/dL; LACTATE DEHYDROGENASE (72 h, time 3 day): 513.5 u/L; LIPASE (72 h, time 3 day): 9.83 u/L; PHOSPHORUS (72 h, time 3 day): 11.32 mg/dL; POTASSIUM (72 h, time 3 day): 6.32 MEQ/L; SODIUM (72 h, time 3 day): 145.12 MEQ/L; TOTAL BILIRUBIN (72 h, time 3 day): 0.2 mg/dL; TOTAL PROTEIN (72 h, time 3 day): 6.4 G/DL; URIC ACID (72 h, time 3 day): 2.03 mg/dL; ABSOLUTE BASOPHIL (120 h, time 5 day): 0 CELLS/uL; ABSOLUTE EOSINOPHIL (120 h, time 5 day): 43.83 CELLS/uL; ABSOLUTE LYMPHOCYTE (120 h, time 5 day): 7316.67 CELLS/uL; ABSOLUTE MONOCYTE (120 h, time 5 day): 87.33 CELLS/uL; ABSOLUTE SEGMENTED NEUTROPHIL (120 h, time 5 day): 418.83 CELLS/uL; BASOPHIL (120 h, time 5 day): 0%; EOSINOPHIL (120 h, time 5 day): 0.33%; ERYTHROCYTE COUNT (120 h, time 5 day): 4.77 x10E6/uL; HEMATOCRIT (120 h, time 5 day): 29.93%; HEMOGLOBIN (120 h, time 5 day): 11.48 G/DL; LEUKOCYTE COUNT (120 h, time 5 day): 7.87 x10E3/uL; LYMPHOCYTE (120 h, time 5 day): 93.5%; MEAN CORPUSCULAR HEMOGLOBIN (120 h, time 5 day): 24.17 pg; MEAN CORPUSCULAR HEMOGLOBIN CONCENTRATION (120 h, time 5 day): 38.57 G/DL; MEAN CORPUSCULAR VOLUME (120 h, time 5 day): 62.68 fL; MONOCYTE (120 h, time 5 day): 1%; NEUTROPHIL (120 h, time 5 day): 5.17%; NUCLEATED RED BLOOD CELLS (120 h, time 5 day): 0 /100WBC; PLATELET COUNT (120 h, time 5 day): 377.67 x10E3/uL; ALANINE AMINOTRANSFERASE (120 h, time 5 day): 89 u/L; ALBUMIN (120 h, time 5 day): 4.42 G/DL; ALKALINE PHOSPHATASE (120 h, time 5 day): 275.17 u/L; ASPARTATE AMINOTRANSFERASE (120 h, time 5 day): 204.17 u/L; BLOOD UREA NITROGEN (120 h, time 5 day): 15.33 mg/dL; CARBON DIOXIDE (120 h, time 5 day): 36.83 mmol/L; CHLORIDE (120 h, time 5 day): 94.67 MEQ/L; CHOLESTEROL (120 h, time 5 day): 92 mg/dL; CREATINE PHOSPHOKINASE (120 h, time 5 day): 514.5 u/L; CREATININE (120 h, time 5 day): 0.24 mg/dL; GLUCOSE (120 h, time 5 day): 184.17 mg/dL; LACTATE DEHYDROGENASE (120 h, time 5 day): 648.67 u/L; LIPASE (120 h, time 5 day): 10 u/L; PHOSPHORUS (120 h, time 5 day): 12.33 mg/dL; POTASSIUM (120 h, time 5 day): 6.51 MEQ/L; SODIUM (120 h, time 5 day): 144.63 MEQ/L; TOTAL BILIRUBIN (120 h, time 5 day): 0.18 mg/dL; TOTAL PROTEIN (120 h, time 5 day): 6.7 G/DL; URIC ACID (120 h, time 5 day): 2.33 mg/dL
